In brackets after ≈: the same amount, converted by molar mass. Blank lines part the entries; values can stand above or below the compound they belong to.
Tests used:
Format in all cases: physicochemical
[1] = Laboratory stability in halogen demand-free water (DFW), iodometric titration; conditions: for Percent Chlorine Remaining: DFW, 22° C.
Method: The stability of 1,3-dichloro-2,2,5,5-tetramethylimidazolidin-4-one (Compound 1) in halogen demand-free water was determined at 22° C. and pH values of 4.5, 7.0, and 9.5, and the results were compared to those for free chlorine as supplied by calcium hypochlorite. The demand-free water (DFW) was prepared by chlorination of distilled, deionized water buffered to the appropriate pH followed by dechlorination (of the excess free chlorine) by exposure to direct sunlight until no free chlorine remained. This treatment insured that all halogen demand in the water was neutralized. Then Compound 1 and calcium hypochlorite were separately dissolved in identical DFW (buffered to an appropriate pH) solutions to the same final total chlorine concentrations (10 milligrams per liter potential positive chlorine). The solutions in separate flasks, which were stoppered with porous, sterile cotton plugs to allow free exchange with laboratory air, were then held at a constant temperature of 22° C. by means of a controlled water bath for a period of several weeks. Aliquots were withdrawn periodically (at least weekly), and the total positive chlorine remaining was determined in triplicate by standard iodometric titration. […]
The stabilities of 1,3-dibromo-2,2,5,5-tetramethylimidazolidin-4-one (Compound 4) and 1-bromo-3-chloro-2,2,5,5-tetramethylimidazolidin-4-one (Compound 5) in halogen demand-free water (DFW) were determined at 22° C. and pH values of 7.0 and 9.5 using the same procedures as discussed under example 9. Given the instability of Compound 1 at pH 4.5 (example 9), it was deemed unnecessary to test compounds 4 and 5 at that pH. The two compounds were dissolved in DFW buffered to the appropriate pH in separate flasks and held at a temperature of 22° C. by means of a constant temperature bath. The starting concentrations of total potential positive halogen in the two solutions were 22.6 milligrams per liter for Compound 4 and 16.25 milligrams per liter for Compound 5; these concentrations represent the molar equivalents in total potential positive halogen to that used for Compound 1 in example 9. The solutions were analyzed in the manner described in example 9.

physchem = conditions: for solubility: water, solubility in water
Method: In method (a) 47.4 grams (0.3 mole) of 2,2,5,5-tetramethylimidazolidine-4-thione was dissolved in 1.2 liters of 3 Normal sodium hydroxide solution (3.6 moles) in a 2 liter flask. The flask and its contents were cooled to 5° C. using an ice bath, and chlorine gas was bubbled into the mixture while stirring until the pH of the solution reached 7.0. The temperature of the mixture was not allowed to rise above 10° C. during this process. The N,N'-dichloroimidazolidin-4-one product precipitated as a white solid. Following addition of 800 milliliters of water to the flask, the solid product was recovered by suction filtration. The product was then purified by dissolving it in hexane, allowing the impurities and remaining water to settle, and recovery by evaporation of the volatile hexane layer which was separated from the impurity/water layer. The product yield was 53.9 grams or 85% of that theoretically expected. Elemental analysis of the product (1,3-dichloro-2,2,5,5-tetramethylimidazolidin-4-one) gave the following results: (calculated/found) % carbon 39.82/39.86, % hydrogen 5.73/5.50, % nitrogen 13.27/13.24, and % chlorine 33.59/32.88. […] Analysis of the product by proton NMR and infrared spectroscopy yielded the following results:
5.1 Grams (0.036 mole) of 2,2,5,5-tetramethylimidazolidin-4-one prepared as in example 2 was dissolved in 88 milliliters of 1 Normal sodium hydroxide solution (0.088 mole) in a 250 milliliter flask. While maintaining this mixture at 10° C. or below using an ice bath and stirring, 12.8 grams (0.08 mole) of liquid bromine was added dropwise. The product 1,3-dibromo-2,2,5,5-tetramethylimidazolidin-4-one precipitated from the mixture as a pale yellow solid. The product was recovered by suction filtration and purified by recrystallization from hexane. The product yield was 9.2 grams or 85% of that theoretically expected. Elemental analysis of the product (1,3-dibromo-2,2,5,5-tetramethylimidazolidin-4-one) gave the following results: (calculated/found) % carbon 28.00/27.80, % hydrogen 4.00/4.07, % nitrogen 9.33/9.39, and % bromine 53.33/52.09. […] Analysis of the product by proton NMR and infrared spectroscopy yielded the following results:
6.4 Grams (0.045 mole) of 2,2,5,5-tetramethylimidazolidin-4-one prepared as in example 2 was dissolved in 55 milliliters of 1 Normal sodium hydroxide solution (0.055 mole) in a 250 milliliter flask. While maintaining the reaction mixture at a temperature of 5°-10° C. by use of an ice bath and stirring, 4.0 grams (0.025 mole) of liquid bromine was added dropwise. The reaction mixture was stirred at ice bath temperature for an additional 1 hour and then for 1-2 hours at cold water bath conditions (10°-20° C.). Following cooling the mixture below 10° C. again, 50 milliliters of 1 Normal sodium hydroxide solution (0.05 mole) was added, and chlorine gas was bubbled in while stirring at 5°-10° C. until the pH reached 6-7. The 1-bromo-3-chloro-2,2,5,5-tetramethylimidazolidin-4-one product precipitated as a white solid. The product was recovered by suction filtration and purified by recrystallization from hexane. The product yield was 11.2 grams or 97% of that theoretically expected. Elemental analysis of the product gave the following results: (calculated/found) % carbon 32.88/32.68, % hydrogen 4.70/4.74, % nitrogen 10.96/10.83, % bromine 31.31/33.37, % chlorine 13.89/12.67. The rather high and low found values as compared to the theoretical values for bromine and chlorine, respectively, indicate that the product was contaminated with a small amount of 1,3-dibromo-2,2,5,5-tetramethylimidazolidin-4-one. […] Analysis of the product by proton NMR and infrared spectroscopy yielded the following results: […]

[2] = Stability in demand-free water exposed to direct sunlight; conditions: DFW, direct sunlight, 22-24° C.
Method: The stabilities of compounds 1,5, and free chlorine from calcium hypochlorite (Compound 2) in water exposed to direct sunlight were determined. Each compound at the 10 milligrams per liter total chlorine concentration level (or at the molar equivalent for total halogen for Compound 5) was dissolved in 85 milliliters of demand-free water buffered at pH 7.0 in separate 100 milliliter beakers which were placed in a temperature-controlled water bath (22°-24° C.), and the bath containing the solutions was placed on the roof of the chemistry building at Auburn University exposed to direct sunlight during August 1988. Total potential positive halogen assays were made periodically on aliquots withdrawn over a 10 hour period using the standard iodometric titration technique.

[3] = Stability in synthetic halogen demand water (SDW); conditions: SDW, 4° C.
Method: A synthetic halogen demand water (SDW) was prepared by mixing the following substances with demand-free water (DFW): 375 milligrams per liter of each of the inorganic salts sodium chloride, potassium chloride, calcium chloride, and magnesium chloride; 50 milligrams per liter of Bentonite clay; 30 milligrams per liter of humic acid; 0.01 percent final concentration of heat-treated horse serum; and 5×10^5 cells per milliliter of heat-killed Saccharomyces cerevisiae yeast cells. The SDW solution was buffered with 0.01 Molar borate/sodium hydroxide to a pH of 9.5 and held at 4° C. during the experiments. The conditions of high ionic strength, turbidity, and organic material, and alkaline pH at low temperature, are viewed as a worst-case scenario for disinfection applications and thus should provide the optimum test of stability for the new compounds.
In separate flasks were dissolved compounds 1, 2, 3, and 5 to a starting concentration of 10 milligrams per liter total potential positive chlorine or its molar equivalent (16.25 milligrams per liter) in total potential positive halogen for Compound 5. Aliquots were withdrawn frequently over a period of more than 90 hours, and the percent positive halogen remaining was determined by standard iodometric titration.

[4] = Hydrolysis equilibrium constant in demand-free water; conditions: pH 7.0, 24°±1° C.
Method: The equilibrium constant for the hydrolysis reaction of 1,3-dichloro-2,2,5,5-tetramethylimidazolidin-4-one to form 1-chloro-2,2,5,5-tetramethylimidazolidin-4-one and free chlorine (Cl^+) was determined at pH 7.0 and 24°±1° C. This was accomplished by preparing a solution of the 1,3-dichloro-2,2,5,5-tetramethylimidazolidin-4-one in demand-free 0.05 molar sodium phosphate buffer (pH 7.0) and allowing the solution to equilibrate while stirring for 1 hour. Then the DPD/FAS technique (as in example 7) was used to determine the free and total chlorine concentrations in the equilibrated solution. The concentration of combined 1,3-dichloro-2,2,5,5-tetramethylimidazolidin-4-one was calculated from the difference between the measured total and free chlorine concentrations. The hydrolysis equilibrium constant was then calculated as the square of the molar free chlorine concentration divided by the molar combined chlorine concentration. For a starting molar total chlorine concentration of 4.441×10^-3 moles per liter, at equilibrium the combined chlorine concentration was 4.428×10^-3 moles per liter, and the free chlorine concentration was 1.269×10^-5 moles per liter. […] For a starting molar total chlorine concentration of 1.764×10^-3 moles per liter, at equilibrium the combined chlorine concentration was 1.759×10^-3 moles per liter, and the free chlorine concentration was 5.360×10^-6 moles per liter. […] The average equilibrium constant for the two separate determinations was thus 2.6±1.0×10^-8.

[5] = starting total chlorine 1.764×10^-3 moles per liter
[6] = starting total chlorine 4.441×10^-3 moles per liter

- remaining at 23.52 h ([1]; demand-free water, pH 9.5): 91.4%
- remaining at 72.24 h ([1]; demand-free water, pH 9.5): 71%
- remaining at 168 h ([1]; demand-free water, pH 9.5): 36%
- remaining at 336 h ([1]; demand-free water, pH 9.5): 4.8%
SMILES: CC1(C)C(=O)N(Br)C(C)(C)N1Br [Compound 4, 1,3-dibromo-2,2,5,5-tetramethylimidazolidin-4-one]

- solubility in water (physchem): 0.120 grams in 100 milliliters of water
- solubility (physchem): 720 µg/mL (≈ 2.4 mM)
SMILES: CC1(C)C(=O)N(Br)C(C)(C)N1Br [1,3-dibromo-2,2,5,5-tetramethylimidazolidin-4-one]

SMILES: [Ca+2].[O-]Cl.[O-]Cl [Compound 2, calcium hypochlorite, reference compound]
- Percent Chlorine Remaining ([1]; pH 4.5 (acetate), 1 week, 10080 min): 91.8%
- Percent Chlorine Remaining ([1]; pH 4.5 (acetate), 2 weeks, 20160 min): 86.2%
- Percent Chlorine Remaining ([1]; pH 4.5 (acetate), 3 weeks, 30240 min): 80.8%
- Percent Chlorine Remaining ([1]; pH 4.5 (acetate), 4 weeks, 40320 min): 76.4%
- Percent Chlorine Remaining ([1]; pH 4.5 (acetate), 5 weeks, 50400 min): 71.5%
- Percent Chlorine Remaining ([1]; pH 4.5 (acetate), 6.14 weeks, 61891.2 min): 65.0%
- Percent Chlorine Remaining ([1]; pH 7.0 (phosphate), 1 week, 10080 min): 91.8%
- Percent Chlorine Remaining ([1]; pH 7.0 (phosphate), 2 weeks, 20160 min): 85.0%
- Percent Chlorine Remaining ([1]; pH 7.0 (phosphate), 3 weeks, 30240 min): 79.6%
- Percent Chlorine Remaining ([1]; pH 7.0 (phosphate), 4 weeks, 40320 min): 70.6%
- Percent Chlorine Remaining ([1]; pH 7.0 (phosphate), 5 weeks, 50400 min): 63.4%
- Percent Chlorine Remaining ([1]; pH 7.0 (phosphate), 6.14 weeks, 61891.2 min): 54.7%
- Percent Chlorine Remaining ([1]; pH 9.5 (borate/NaOH), 1 week, 10080 min): 88.9%
- Percent Chlorine Remaining ([1]; pH 9.5 (borate/NaOH), 2 weeks, 20160 min): 79.0%
- Percent Chlorine Remaining ([1]; pH 9.5 (borate/NaOH), 3 weeks, 30240 min): 71.2%
- Percent Chlorine Remaining ([1]; pH 9.5 (borate/NaOH), 4 weeks, 40320 min): 60.3%
- Percent Chlorine Remaining ([1]; pH 9.5 (borate/NaOH), 5 weeks, 50400 min): 50.1%
- Percent Chlorine Remaining ([1]; pH 9.5 (borate/NaOH), 6.14 weeks, 61891.2 min): 38.5%
- Percent Halogen Remaining ([2]; pH 7.0, 3.0 hrs): 26.0%
- Percent Halogen Remaining ([2]; pH 7.0, 5.0 hrs): 6.9%
- Percent Halogen Remaining ([2]; pH 7.0, 10.0 hrs): 0.0%
- Percent Halogen Remaining ([3]; pH 9.5, 0.5 hrs): 51.5%
- Percent Halogen Remaining ([3]; pH 9.5, 1.0 hrs): 46.4%
- Percent Halogen Remaining ([3]; pH 9.5, 2.5 hrs): 39.6%
- Percent Halogen Remaining ([3]; pH 9.5, 4.2 hrs): 39.6%
- Percent Halogen Remaining ([3]; pH 9.5, 7.5 hrs): 36.2%
- Percent Halogen Remaining ([3]; pH 9.5, 24.0 hrs): 31.3%
- Percent Halogen Remaining ([3]; pH 9.5, 76.5 hrs): 21.5%

- solubility in water (physchem): 0.193 grams in 100 milliliters of water
- solubility (physchem): 1020 µg/mL (≈ 3.99 mM)
SMILES: CC1(C)C(=O)N(Cl)C(C)(C)N1Br [1-bromo-3-chloro-2,2,5,5-tetramethylimidazolidin-4-one]

- average hydrolysis equilibrium constant ([4]; average of two determinations): 2.6±1.0×10^-8
- combined chlorine concentration at equilibrium [4, 5]: 1.759×10^-3 moles per liter
- free chlorine concentration at equilibrium [4, 5]: 5.360×10^-6 moles per liter
- hydrolysis equilibrium constant [4, 5]: 1.63×10^-8
- combined chlorine concentration at equilibrium [4, 6]: 4.428×10^-3 moles per liter
- free chlorine concentration at equilibrium [4, 6]: 1.269×10^-5 moles per liter
- hydrolysis equilibrium constant [4, 6]: 3.64×10^-8
- solubility in water (physchem): 0.224 grams in 100 milliliters of water
- solubility (physchem): 1380 µg/mL (≈ 6.54 mM)
SMILES: CC1(C)C(=O)N(Cl)C(C)(C)N1Cl [1,3-dichloro-2,2,5,5-tetramethylimidazolidin-4-one]
